Source: ChEMBL document CHEMBL5696441 (Nat Chem Biol, 2011)

What was measured:
[1] = biological target: RAC-beta serine/threonine-protein kinase (Homo sapiens) (UniProt P31751); test: Inhibition of human AKT2 assessed as residual activity at 1 uM using RBER-GSK3(14-27) as substrate in presence of 33P-ATP by ProQinase assay relative to control
[2] = biological target: Tyrosine-protein kinase Mer (Homo sapiens) (UniProt Q12866); test: Inhibition of human MERTK assessed as residual activity at 1 uM using polyEY as substrate in presence of 33P-ATP by ProQinase assay relative to control
Tyrosine-protein kinase Mer (Homo sapiens), sequence (Q12866 whole entry): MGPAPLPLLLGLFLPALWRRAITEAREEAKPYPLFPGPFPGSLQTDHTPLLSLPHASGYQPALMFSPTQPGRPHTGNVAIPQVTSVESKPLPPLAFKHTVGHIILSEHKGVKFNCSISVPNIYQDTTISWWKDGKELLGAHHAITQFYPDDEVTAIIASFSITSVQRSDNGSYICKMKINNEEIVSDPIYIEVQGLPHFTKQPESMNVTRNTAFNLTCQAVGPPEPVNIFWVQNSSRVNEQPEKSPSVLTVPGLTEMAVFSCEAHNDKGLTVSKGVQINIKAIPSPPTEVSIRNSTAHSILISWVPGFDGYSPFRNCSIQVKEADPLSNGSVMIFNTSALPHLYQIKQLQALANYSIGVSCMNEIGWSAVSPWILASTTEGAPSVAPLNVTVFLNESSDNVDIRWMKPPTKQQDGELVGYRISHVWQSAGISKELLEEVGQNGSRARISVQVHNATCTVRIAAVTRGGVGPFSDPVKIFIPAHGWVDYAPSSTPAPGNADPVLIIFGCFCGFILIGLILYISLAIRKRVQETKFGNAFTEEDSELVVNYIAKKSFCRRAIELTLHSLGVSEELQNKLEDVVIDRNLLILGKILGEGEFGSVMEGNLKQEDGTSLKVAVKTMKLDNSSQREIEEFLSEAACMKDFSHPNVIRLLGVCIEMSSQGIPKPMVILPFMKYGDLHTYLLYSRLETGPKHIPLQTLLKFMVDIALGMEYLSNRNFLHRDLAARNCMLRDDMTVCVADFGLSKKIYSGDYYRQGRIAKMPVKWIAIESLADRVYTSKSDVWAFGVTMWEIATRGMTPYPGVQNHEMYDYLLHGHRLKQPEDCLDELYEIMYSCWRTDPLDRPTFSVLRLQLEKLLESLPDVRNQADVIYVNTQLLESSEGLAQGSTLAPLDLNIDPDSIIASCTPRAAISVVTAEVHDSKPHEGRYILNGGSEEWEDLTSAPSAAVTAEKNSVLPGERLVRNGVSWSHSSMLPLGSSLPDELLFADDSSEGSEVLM

[3] = biological target: T1, cGMP-dependent protein kinase 2 (Homo sapiens) (UniProt Q13237); test: Inhibition of human PRKG2 assessed as residual activity at 1 uM using RBER-GSK3(14-27) as substrate in presence of 33P-ATP by ProQinase assay relative to control
T1 sequence (whole entry): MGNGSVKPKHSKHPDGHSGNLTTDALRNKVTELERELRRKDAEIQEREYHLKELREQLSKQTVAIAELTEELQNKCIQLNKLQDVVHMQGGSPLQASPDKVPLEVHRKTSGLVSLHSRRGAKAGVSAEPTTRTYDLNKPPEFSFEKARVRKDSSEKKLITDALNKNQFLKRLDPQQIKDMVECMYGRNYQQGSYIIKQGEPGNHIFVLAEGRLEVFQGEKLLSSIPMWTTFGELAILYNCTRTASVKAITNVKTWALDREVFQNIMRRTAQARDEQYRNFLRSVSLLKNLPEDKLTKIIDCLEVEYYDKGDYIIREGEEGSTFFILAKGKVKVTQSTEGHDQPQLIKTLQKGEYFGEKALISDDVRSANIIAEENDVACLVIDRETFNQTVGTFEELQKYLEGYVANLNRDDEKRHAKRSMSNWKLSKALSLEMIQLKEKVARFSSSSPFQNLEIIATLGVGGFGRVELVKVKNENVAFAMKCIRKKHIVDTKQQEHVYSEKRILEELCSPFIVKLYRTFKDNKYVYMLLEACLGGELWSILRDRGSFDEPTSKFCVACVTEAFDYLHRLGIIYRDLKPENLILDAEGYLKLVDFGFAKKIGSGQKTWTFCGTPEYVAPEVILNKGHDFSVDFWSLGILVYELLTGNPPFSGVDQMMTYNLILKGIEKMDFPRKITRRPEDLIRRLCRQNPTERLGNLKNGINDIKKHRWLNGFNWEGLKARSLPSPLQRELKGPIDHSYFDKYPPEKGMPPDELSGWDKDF

[4] = biological target: Cyclin-dependent kinase-like 2 (Homo sapiens) (UniProt Q92772); test: Inhibition of CDKL2 (unknown origin) assessed as remaining activity at 1 uM by Kinome scan method relative to control
Cyclin-dependent kinase-like 2 (Homo sapiens), sequence (Q92772 whole entry): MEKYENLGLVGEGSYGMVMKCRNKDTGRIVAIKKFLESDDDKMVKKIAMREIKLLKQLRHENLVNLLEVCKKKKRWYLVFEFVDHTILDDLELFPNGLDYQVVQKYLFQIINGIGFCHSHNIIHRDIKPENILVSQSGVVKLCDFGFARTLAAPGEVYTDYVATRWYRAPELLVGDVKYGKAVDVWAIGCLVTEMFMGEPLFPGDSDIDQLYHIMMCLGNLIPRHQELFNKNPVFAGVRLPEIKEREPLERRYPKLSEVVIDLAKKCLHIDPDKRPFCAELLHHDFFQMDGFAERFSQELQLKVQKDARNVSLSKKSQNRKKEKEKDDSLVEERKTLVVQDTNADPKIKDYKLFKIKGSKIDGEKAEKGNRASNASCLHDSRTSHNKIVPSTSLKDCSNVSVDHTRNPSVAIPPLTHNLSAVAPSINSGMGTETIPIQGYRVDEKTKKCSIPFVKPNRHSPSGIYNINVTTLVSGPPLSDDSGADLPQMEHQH

[5] = biological target: Serine/threonine-protein kinase Nek4 (Homo sapiens) (UniProt P51957); test: Inhibition of human NEK4 assessed as residual activity at 1 uM using MBP as substrate in presence of 33P-ATP by ProQinase assay relative to control
[6] = biological target: Tyrosine-protein kinase CSK (Homo sapiens) (UniProt P41240); test: Inhibition of human CSK assessed as residual activity at 1 uM using polyEY as substrate in presence of 33P-ATP by ProQinase assay relative to control
Tyrosine-protein kinase CSK (Homo sapiens), sequence (P41240 2-450 limits assumed): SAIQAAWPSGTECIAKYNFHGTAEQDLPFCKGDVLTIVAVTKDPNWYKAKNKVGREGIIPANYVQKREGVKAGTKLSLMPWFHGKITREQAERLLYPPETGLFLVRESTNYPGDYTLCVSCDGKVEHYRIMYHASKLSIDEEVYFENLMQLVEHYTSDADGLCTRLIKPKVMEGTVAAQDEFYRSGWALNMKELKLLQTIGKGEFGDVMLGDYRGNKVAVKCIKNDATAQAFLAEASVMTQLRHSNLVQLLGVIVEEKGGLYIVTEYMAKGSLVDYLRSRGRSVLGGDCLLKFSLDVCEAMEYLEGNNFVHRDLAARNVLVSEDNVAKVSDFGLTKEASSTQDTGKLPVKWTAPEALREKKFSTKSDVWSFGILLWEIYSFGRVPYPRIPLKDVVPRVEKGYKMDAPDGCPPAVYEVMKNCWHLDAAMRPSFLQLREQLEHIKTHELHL

[7] = biological target: Bone morphogenetic protein receptor type-1A (Homo sapiens) (UniProt P36894); test: Inhibition of human BMPR1A assessed as residual activity at 1 uM using casein as substrate in presence of 33P-ATP by ProQinase assay relative to control
[8] = biological target: Interleukin-1 receptor-associated kinase 1 (Homo sapiens) (UniProt P51617); test: Inhibition of human IRAK1 assessed as residual activity at 1 uM using RB-CTF as substrate in presence of 33P-ATP by ProQinase assay relative to control
[9] = biological target: Serine/threonine-protein kinase pim-3 (Homo sapiens) (UniProt Q86V86); test: Inhibition of PIM3 (unknown origin) assessed as remaining activity at 1 uM by Kinome scan method relative to control
[10] = biological target: Receptor-interacting serine/threonine-protein kinase 1 (Homo sapiens) (UniProt Q13546); test: Inhibition of RIPK1 (unknown origin) assessed as remaining activity at 1 uM by Kinome scan method relative to control
Receptor-interacting serine/threonine-protein kinase 1 (Homo sapiens), sequence (Q13546 whole entry): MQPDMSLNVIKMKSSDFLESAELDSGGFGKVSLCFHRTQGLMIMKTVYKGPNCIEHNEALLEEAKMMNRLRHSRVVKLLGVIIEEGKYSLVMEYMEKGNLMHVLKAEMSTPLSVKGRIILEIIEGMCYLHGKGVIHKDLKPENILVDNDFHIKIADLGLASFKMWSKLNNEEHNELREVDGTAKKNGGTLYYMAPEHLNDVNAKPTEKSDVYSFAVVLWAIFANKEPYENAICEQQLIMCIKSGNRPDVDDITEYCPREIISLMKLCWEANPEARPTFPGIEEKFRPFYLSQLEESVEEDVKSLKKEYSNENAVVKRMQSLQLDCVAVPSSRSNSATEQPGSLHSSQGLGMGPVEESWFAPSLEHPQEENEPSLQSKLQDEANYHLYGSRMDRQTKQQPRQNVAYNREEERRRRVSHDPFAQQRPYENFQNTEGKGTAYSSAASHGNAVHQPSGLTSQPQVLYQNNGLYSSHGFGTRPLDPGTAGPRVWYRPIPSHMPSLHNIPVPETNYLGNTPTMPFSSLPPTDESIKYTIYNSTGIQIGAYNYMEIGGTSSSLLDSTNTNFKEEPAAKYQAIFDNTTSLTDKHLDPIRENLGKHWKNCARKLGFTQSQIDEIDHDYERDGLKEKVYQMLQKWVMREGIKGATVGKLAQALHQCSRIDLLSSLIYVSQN

[11] = biological target: T2, Tyrosine-protein kinase ITK/TSK (Homo sapiens) (UniProt Q08881); test: Inhibition of human ITK assessed as residual activity at 1 uM using polyEY as substrate in presence of 33P-ATP by ProQinase assay relative to control
T2 sequence (whole entry): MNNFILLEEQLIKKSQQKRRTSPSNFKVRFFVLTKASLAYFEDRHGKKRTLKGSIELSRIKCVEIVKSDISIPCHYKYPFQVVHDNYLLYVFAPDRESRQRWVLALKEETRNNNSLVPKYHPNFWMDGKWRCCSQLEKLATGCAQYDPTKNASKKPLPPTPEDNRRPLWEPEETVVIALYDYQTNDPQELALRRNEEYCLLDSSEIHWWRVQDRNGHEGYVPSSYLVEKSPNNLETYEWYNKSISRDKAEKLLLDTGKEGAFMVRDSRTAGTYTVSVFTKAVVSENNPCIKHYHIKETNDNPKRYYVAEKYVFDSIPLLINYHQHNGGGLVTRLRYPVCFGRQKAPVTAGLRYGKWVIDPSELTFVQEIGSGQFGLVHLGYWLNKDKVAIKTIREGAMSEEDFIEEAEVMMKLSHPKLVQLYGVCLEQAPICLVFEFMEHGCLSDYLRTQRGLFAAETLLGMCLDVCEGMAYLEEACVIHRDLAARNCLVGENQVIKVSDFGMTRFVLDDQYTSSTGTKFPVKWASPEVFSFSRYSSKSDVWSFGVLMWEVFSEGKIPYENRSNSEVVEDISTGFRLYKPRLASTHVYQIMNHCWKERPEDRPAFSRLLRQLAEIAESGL

[12] = biological target: Protein-tyrosine kinase 6 (Homo sapiens) (UniProt Q13882); test: Inhibition of human BRK assessed as residual activity at 1 uM using PolyEY as substrate in presence of 33P-ATP by ProQinase assay relative to control
[13] = biological target: Proto-oncogene tyrosine-protein kinase Src (Homo sapiens) (UniProt P12931); test: Inhibition of SRC (unknown origin) assessed as remaining activity at 1 uM by Kinome scan method relative to control
[14] = biological target: Serine/threonine-protein kinase Nek3 (Homo sapiens) (UniProt P51956); test: Inhibition of human NEK3 assessed as residual activity at 1 uM using RBER-CHKtide as substrate in presence of 33P-ATP by ProQinase assay relative to control
Serine/threonine-protein kinase Nek3 (Homo sapiens), sequence (P51956 whole entry): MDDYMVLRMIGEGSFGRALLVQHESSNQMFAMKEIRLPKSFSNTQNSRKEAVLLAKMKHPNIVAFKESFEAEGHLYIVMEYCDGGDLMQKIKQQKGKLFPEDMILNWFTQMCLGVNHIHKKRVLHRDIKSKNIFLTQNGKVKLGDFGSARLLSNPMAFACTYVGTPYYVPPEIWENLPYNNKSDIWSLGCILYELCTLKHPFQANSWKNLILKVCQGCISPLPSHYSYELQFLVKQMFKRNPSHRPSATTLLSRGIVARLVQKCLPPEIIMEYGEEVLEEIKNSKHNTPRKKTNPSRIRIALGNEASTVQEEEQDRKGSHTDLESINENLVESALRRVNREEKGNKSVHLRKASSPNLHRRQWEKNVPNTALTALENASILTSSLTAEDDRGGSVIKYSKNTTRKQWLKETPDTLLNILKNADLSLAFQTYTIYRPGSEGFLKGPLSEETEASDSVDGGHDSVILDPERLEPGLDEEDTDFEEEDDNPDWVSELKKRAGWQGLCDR

[15] = biological target: SRSF protein kinase 2 (Homo sapiens) (UniProt P78362); test: Inhibition of human SRPK2 assessed as residual activity at 1 uM using MBP as substrate in presence of 33P-ATP by ProQinase assay relative to control
SRSF protein kinase 2 (Homo sapiens), sequence (P78362 whole entry, looked up): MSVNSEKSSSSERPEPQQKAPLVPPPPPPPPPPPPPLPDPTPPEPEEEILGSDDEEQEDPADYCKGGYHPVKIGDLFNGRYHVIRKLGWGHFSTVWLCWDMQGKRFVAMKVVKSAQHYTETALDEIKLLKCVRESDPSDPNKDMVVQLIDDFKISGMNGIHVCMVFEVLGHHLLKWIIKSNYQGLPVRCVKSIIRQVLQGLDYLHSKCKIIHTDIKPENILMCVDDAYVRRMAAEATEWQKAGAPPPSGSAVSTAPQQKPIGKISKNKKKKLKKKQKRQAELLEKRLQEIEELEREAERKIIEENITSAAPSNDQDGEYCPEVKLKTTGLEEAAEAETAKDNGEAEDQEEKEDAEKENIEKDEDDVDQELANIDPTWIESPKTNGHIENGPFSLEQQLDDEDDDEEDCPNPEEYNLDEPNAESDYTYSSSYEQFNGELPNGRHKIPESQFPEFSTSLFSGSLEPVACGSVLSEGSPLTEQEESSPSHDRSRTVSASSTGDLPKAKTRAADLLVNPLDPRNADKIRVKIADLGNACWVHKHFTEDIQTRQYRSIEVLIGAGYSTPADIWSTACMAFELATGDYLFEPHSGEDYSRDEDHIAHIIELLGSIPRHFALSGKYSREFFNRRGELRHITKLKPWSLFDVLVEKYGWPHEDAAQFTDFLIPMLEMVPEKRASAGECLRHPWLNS

[16] = biological target: Serine/threonine-protein kinase 16 (Homo sapiens) (UniProt O75716); test: Inhibition of human TSF1 assessed as residual activity at 1 uM using casein as substrate in presence of 33P-ATP by ProQinase assay relative to control
Serine/threonine-protein kinase 16 (Homo sapiens), sequence (O75716 whole entry): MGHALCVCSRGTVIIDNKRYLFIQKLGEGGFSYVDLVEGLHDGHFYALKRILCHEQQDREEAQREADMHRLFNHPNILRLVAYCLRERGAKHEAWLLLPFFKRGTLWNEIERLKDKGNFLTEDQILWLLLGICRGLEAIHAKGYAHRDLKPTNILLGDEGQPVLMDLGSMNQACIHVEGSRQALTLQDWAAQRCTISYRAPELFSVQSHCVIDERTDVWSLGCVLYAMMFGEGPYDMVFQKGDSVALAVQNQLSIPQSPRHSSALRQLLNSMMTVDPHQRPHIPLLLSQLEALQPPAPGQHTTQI

RAC-beta serine/threonine-protein kinase (Homo sapiens), sequence (P31751 whole entry): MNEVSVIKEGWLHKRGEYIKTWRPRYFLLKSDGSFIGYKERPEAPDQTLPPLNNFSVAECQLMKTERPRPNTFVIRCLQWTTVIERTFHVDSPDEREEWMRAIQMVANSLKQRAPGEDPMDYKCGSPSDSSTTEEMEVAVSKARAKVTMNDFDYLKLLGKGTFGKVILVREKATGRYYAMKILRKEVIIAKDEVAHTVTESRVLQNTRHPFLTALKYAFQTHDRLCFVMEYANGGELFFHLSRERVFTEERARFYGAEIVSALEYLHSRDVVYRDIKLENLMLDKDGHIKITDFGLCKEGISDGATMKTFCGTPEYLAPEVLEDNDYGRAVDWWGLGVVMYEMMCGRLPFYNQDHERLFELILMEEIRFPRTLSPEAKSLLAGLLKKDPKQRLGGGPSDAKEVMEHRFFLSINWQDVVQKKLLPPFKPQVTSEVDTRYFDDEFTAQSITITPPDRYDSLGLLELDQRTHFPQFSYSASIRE

Q: What does the source list for `O=C1c2ccc(Nc3ccc(F)cc3F)cc2CCc2ccc(OC[C@H](O)CO)cc21` [Skepinone-L]?
A: Activity [1]: 121%; Activity [2]: 98%; Activity [3]: 94%; Activity [4]: 100%; Activity [5]: 99%; Activity [6]: 111%; Activity [7]: 100%; Activity [8]: 101%; Activity [9]: 100%; Activity [10]: 100%; Activity [11]: 97%; Activity [12]: 84%; Activity [13]: 100%; Activity [14]: 85%; Activity [15]: 101%; Activity [16]: 94%
